Earlier results on one molecule are cited in patent publication US20050147629A1, “Pharmaceutical formulation comprising non-peptide renin inhibitor and surfactant” (priority 2002, published 2005).

The structures appear in SMILES notation.

For the data set the following is noted: readily soluble = at least 1 g per 100 ml, poorly soluble = less than 1 g per 100 ml (b7).

Take `COCCCOc1cc(C[C@@H](C[C@H](N)[C@@H](O)C[C@H](C(=O)NCC(C)(C)C(N)=O)C(C)C)C(C)C)ccc1OC` [formula Ia]: the solubility in water entry was “very readily soluble in water”.
